Data on six molecules can be found in patent US6156790A, “C-10 carbon-substituted artemisinin-like trioxane compounds having antimalarial, antiproliferative and antitumor activities” (priority 1997, dated 2000).

For data set [1] the following is noted: cited from earlier work.
For data set [2] the following is noted: rat liver microsomes; cited from earlier work.
In data set [3] the test system is murine keratinocyte cell line PE. Kind of data set: viability by trypan blue exclusion. Particulars: 96 hours. In kind it is cell-based.
The subject of the next data set is P. berghei. Particulars: cited from earlier work.
Data set [4] deals with Ehrlich ascites tumor (EAT) cells. Particulars: cited from earlier work.
A further data set concerns ACHN. Kind of data set: cells. Particulars: Homo sapiens, read-out: Log10 LC50 (converted).
Another data set concerns A549/ATCC. In words: NCI 60 cell line screen (SRB), non-small cell lung cancer. Format: cell-based. Particulars: Homo sapiens.
A further data set has as its system MDA-N. Kind of data set: cells. Format: cell-based. The following applies: Homo sapiens.
In another data set the test system is HOP-62. In words: cells. In kind it is cell-based. The following applies: Homo sapiens, read-out: Log10 TGI (converted).
The subject of the next data set is NCI-H522. Kind of data set: cells. In kind it is cell-based. The following applies: Homo sapiens, read-out: Log10 TGI (converted).
The test system of a further data set is A498. In words: cells. In kind it is cell-based. The following applies: Homo sapiens, read-out: Log10 GI50 (converted).
A further data set has as its system MDA-MB-435. Kind of data set: cells. Format: cell-based. Particulars: Homo sapiens, read-out: Log10 TGI (converted).
Another data set concerns 60 cell line panel. In words: NCI 60 cell line screen, whole panel. Format: cell-based.
The next data set concerns NCI-H23. Kind of data set: NCI 60 cell line screen (SRB), non-small cell lung cancer. Format: cell-based. Particulars: Homo sapiens.
Data set [5] has as its system murine keratinocyte cell line PE. In words: growth inhibition of PE cells (MTT assay). Format: cell-based. Particulars: 100 nanomolar. On the procedure: To determine the inhibitory effect of the compositions of the present invention on cell proliferation, screening assays were performed on a murine keratinocyte cell line PE. Cell line PE was chosen for its particular sensitivity to the induction of ornithine decarboxylase (ODC) activity by the extensively characterized tumor promoter TPA. […] PE cell culture medium consisted of Eagle's minimal essential medium without calcium chloride (Whittaker Bioproducts, Walkersville, Mass.) supplemented with 8% chelexed fetal calf serum and 1% antibiotic-antimycotic (Gibco BRL) and the addition of CaCl2 to 0.05 mM Ca^++.
Growth Inhibition. Growth curves, shown in FIGS. 1 and 2, for PE cells treated with calcitriol and the C-10 carbon-substituted dimers 21, 22, 26, 27, and 28 generated by assay for the reduction of the tetrazolium-based compound MTT, see Charmichael, et al., Cancer Res., 47:936-942 (1987). […] PE cells were seeded at a density of 5,000 cells/well in 50 μL of medium into 96-well microtiter plates. Twelve hours later, the medium was removed, and cells were treated with 100 μL of fresh medium into which the appropriate amount of calcitrol or analog dissolved in dimethyl sulfoxide (DMSO) had been added, with the concentration of DMSO held constant at 0.1%. […] At 24-hour intervals following the initial treatment of the cells with compounds, 0.1 mg (50 μL of a 2 mg/mL solution) of MTT was added to each well. After 4 hours, the MTT was removed and DMSO added to dissolve the blue formazan dye. Using a microtiter plate reader, the A505 was then determined and cell number calculated from blank-subtracted absorbance values.
Background: Tetrazolium assays rely on reduction of a dye to a coloured formazan, in cell work by metabolically active cells.

The next data set has as its system SF-295. Kind of data set: cells. Format: cell-based. The following applies: Homo sapiens, read-out: Log10 TGI (converted).
In another data set the test system is KM12. In words: cells. Format: cell-based. Particulars: Homo sapiens, read-out: Log10 TGI (converted).
The subject of another data set is MDA-MB231/ATCC. In words: cells. Format: cell-based. Particulars: Homo sapiens, MDA-MB-231, read-out: Log10 TGI (converted).
In a further data set the test system is PC-3. In words: cells. The following applies: Homo sapiens, PC-3, read-out: Log10 TGI. In kind it is cell-based.
In another data set the test system is HT29. Kind of data set: cells. Format: cell-based. The following applies: Homo sapiens, HT-29, read-out: Log10 TGI (converted).
For the next data set, the system named is T-47D. In words: cells. The following applies: Homo sapiens, T47D, read-out: Log10 TGI. In kind it is cell-based.
Another data set relates to BT-549. In words: cells. Format: cell-based. The following applies: Homo sapiens, read-out: Log10 TGI (converted).
In a further data set the test system is HCT-116. In words: cells. Format: cell-based. Particulars: Homo sapiens, read-out: Log10 TGI (converted).
Another data set deals with SF-268. In words: NCI 60 cell line screen (SRB), CNS cancer. In kind it is cell-based. The following applies: Homo sapiens, read-out: Log10 TGI (converted).
In the next data set the test system is NCI-H460. In words: cells. Format: cell-based. The following applies: Homo sapiens.
For another data set, the system named is SF-539. In words: cells. Format: cell-based. Particulars: Homo sapiens, read-out: Log10 TGI (converted).
Another data set concerns HS 578T. In words: cells. In kind it is cell-based. The following applies: Homo sapiens, read-out: Log10 TGI (converted).
A further data set has as its system K-562. Kind of data set: cells. In kind it is cell-based. Particulars: Homo sapiens, K562, read-out: Log10 TGI.
Data set [6] has as its system chloroquine-sensitive P. falciparum (NF54). In words: In vitro antimalarial activity ([3H]hypoxanthine incorporation). In kind it is cell-based. Particulars: in words. On the procedure: Activity was determined by measuring the incorporation of [^3 H]hypoxanthine, by the methods of Desjardins and Milhouse, with the following modofications, see […].; Haynes, […]. Antimicrob. Agents Chemother., 16:710 (1979); Milhous, W. K.; Weatherly, […].; Antimicrob. Agents Chemother., 27: 525 (1985). […] Parasitemia was maintained at 0.05-3% and doubling time at approximately 15 hours by twice weekly change of medium and replenishment with fresh erythrocytes. […] Sigma-Aldrich #27,043-1). DMSO solutions were diluted 500-fold in medium, serially diluted in 0.2% DMSO in medium (to maintain constant solvent concentration), then 100 μL aliquots were pipetted into microtiter plate wells (Costar 3595). […] Plates included at least 8 wells of no drug controls (4 with and 4 without DMSO) and 4 wells of uninfected erythrocytes. […] Cells were harvested (Brandel MB-48R) onto GF-C glass filters (Brandel). The filters were washed five times with 3 mL water per sample spot, dried under a heat lamp, and counted (Beckman Model LS-6500) in scintillation cocktail (ICN Cytoscint). Decays per minute (dpm) values were downloaded and analyzed (Power MFacintosh 7200/90; Microsoft Excel 5.0), to yield the mean and standard deviation at each drug concentration.

The next data set concerns MOLT-4. Kind of data set: cells. Particulars: Homo sapiens, MOLT-4, read-out: concentration for primary growth inhibition. On the procedure: The screening assay is performed on a 96-well microtitre plates.
Dose response curves, shown in the above mentioned Figures, are obtained by exposing various cancer cell lines to compounds having a known concentration ([log10 M]), as discussed in detail above, and then plotting the percentage growth of each cell line for each concentration. […] As discussed previously, the five drug dilutions routinely tested range from 10^-4 to 10^-9 molar.

Another data set deals with HOP-92. In words: NCI 60 cell line screen (SRB), non-small cell lung cancer. Format: cell-based. Particulars: Homo sapiens, read-out: Log10 TGI (converted).
Another data set concerns IGROVI. Kind of data set: cells. The following applies: 60 cell.
The next data set deals with HCT-15. In words: cells. The following applies: Homo sapiens, HCT-15, read-out: Log10 TGI. In kind it is cell-based.
Another data set has as its system U251. In words: cells. In kind it is cell-based. The following applies: Homo sapiens, U-251, read-out: Log10 TGI (converted).
The subject of another data set is NCI-H226. In words: NCI 60 cell line screen (SRB), non-small cell lung cancer. In kind it is cell-based. The following applies: Homo sapiens.
In a further data set the test system is MCF7. Kind of data set: cells. In kind it is cell-based. The following applies: Homo sapiens.
The test system of a further data set is COLO 205. Kind of data set: NCI 60 cell line screen (SRB), colon cancer. In kind it is cell-based. Particulars: Homo sapiens, read-out: Log10 TGI (converted).
A further data set has as its system SNB-75. In words: cells. The following applies: Homo sapiens. Format: cell-based.
The test system of the next data set is EKVX. In words: NCI 60 cell line screen (SRB), non-small cell lung cancer. In kind it is cell-based. Particulars: Homo sapiens.
Setting [7] is: read-out: Log10 LC50 (converted).
Where [8] appears, read: read-out: Log10 TGI (converted).
[9] abbreviates: read-out: Log10 GI50 (converted).

Molecules are shown by their SMILES.

Turning to `C[C@@H]1CC[C@H]2[C@@H](C)C(O)O[C@@H]3O[C@@]4(C)CC[C@@H]1[C@]32OO4` (some centres unmarked) [dihydroartemisinin (II-1), dihydroartemisinin], the half-life in plasma entry in data set [1] is reported as “less than two”.
In the case of `CCO[C@H]1O[C@@H]2O[C@@]3(C)CC[C@H]4[C@H](C)CC[C@@H]([C@H]1C)[C@@]24OO3` [arteether], the “conversion into dihydroartemisinin (II-1)” value in data set [2] is reported as “rapidly converted”.
As to `C=C1/C(=C\C=C2/CCC[C@]3(C)[C@@H]([C@H](C)CCCC(C)(C)O)CC[C@@H]23)C[C@@H](O)C[C@@H]1O` [calcitriol, 1α,25-dihydroxyvitamin D3], the “viability of treated cells vs control cells” value in data set [3] is reported as “identical to control cells”.
As to `C[C@@H]1CC[C@H]2[C@@H](C)C(OC3O[C@@H]4O[C@@]5(C)CC[C@H]6[C@H](C)CC[C@@H]([C@H]3C)[C@@]46OO5)O[C@@H]3O[C@@]4(C)CC[C@@H]1[C@]32OO4` (some centres unmarked), the “SD90 (parasitemia 90 percent suppressed)” value in the data set with P. berghei (P. berghei-infected mice) is 10 mg/kg. In [4], the “times more cytotoxic than artemisinin” value is “approximately twenty-two” and the “times more cytotoxic than dihydroartemisinin (II-1)” value is on record as “sixty”. The “times more potent than artemisinin at 50% growth inhibition” value in data set [4] (one cancer cell line) is given as “approximately twenty-two”.
In the case of `CC1=CO[C@@H]2O[C@@]3(C)CC[C@H]4[C@H](C)CC[C@@H]1[C@@]24OO3` [olefinic compound III], the “activity against P. berghei-infected mice” value in the data set with P. berghei (in words) was “inactive”.
The LC50 is the concentration lethal to half of the exposed cells or organisms. Consider `C[C@H]1[C@@H](CC(=O)c2cccc(C(=O)C[C@H]3O[C@@H]4O[C@@]5(C)CC[C@H]6[C@H](C)CC[C@@H]([C@H]3C)[C@@]46OO5)c2)O[C@@H]2O[C@@]3(C)CC[C@H]4[C@H](C)CC[C@@H]1[C@@]24OO3` [Dimer 22], for which the CC50 is above 100 µM in the data set on ACHN; above 100 µM in the data set on A549/ATCC (setting [7]); above 100 µM with MDA-N (setting [7]); above 100 µM in the data set with NCI-H460 (NCI-H460, read-out: Log10 LC50 (converted)); above 100 µM in the data set on IGROVI (Homo sapiens, read-out: Log10 LC50 (converted)); above 100 µM with NCI-H226 (setting [7]). Also, the CC50 in the data set on EKVX (setting [7]) was above 100 µM. Besides, the IC (TGI) in the data set on A549/ATCC (setting [8]), with MDA-N (setting [8]), in the data set with HOP-62, with NCI-H522, in the data set on MDA-MB-435 and in the data set with NCI-H23 (setting [8]) was above 100 µM throughout. The IC (TGI) with SF-295, in the data set with KM12, in the data set with MDA-MB231/ATCC, with PC-3, in the data set on HT29 and in the data set on T-47D was above 100 µM in each case. In addition, the IC (TGI) in the data set with BT-549 was above 100 µM; in the data set with HCT-116, above 100 µM; in the data set on SF-268, above 100 µM; in the data set with NCI-H460 (NCI-H460, read-out: Log10 TGI) it was above 100 µM; in the data set on SF-539, above 100 µM; with HS 578T, above 100 µM. In addition, the IC (TGI) is above 100 µM in the data set with K-562; above 100 µM in the data set on HOP-92; above 100 µM with HCT-15; above 100 µM in the data set on U251; above 100 µM with NCI-H226 (setting [8]); above 100 µM with MCF7 (MCF7, read-out: Log10 TGI). Also, the IC (TGI) in the data set with COLO 205, in the data set on SNB-75 (setting [8]) and in the data set with EKVX (setting [8]) was above 100 µM throughout. Also, the GI50 in the data set with A498 is 46.8 µM; with 60 cell line panel (60 cell, mean over panel, read-out: Log10 GI50 MG MID (converted)) it was 75.9 µM; in the data set on MOLT-4, above 100 µM; with IGROVI (setting [9]), 0.589 µM; in the data set with MCF7 (MCF7, read-out: Log10 GI50 (converted)), 0.389 µM; in the data set on SNB-75 (setting [9]), 4.37 µM. The “Log10 TGI Delta” value with 60 cell line panel (panel) came to 0.00. Also, the “Log10 TGI Range” value in the data set with 60 cell line panel (panel) came to 0.00. The 50% lethal concentration (LC50) with NCI-H23 (setting [7]) was above 100 µM. Besides, in data set [5], the “antiproliferative activity compared with calcitriol” value is recorded as “at least as antiproliferative as calcitrol”. In data set [6], the “IC50 compared with artemisinin” value was “lower than that of artemisinin”.
